Patent US6680332B1, “Substituted 5-oxo-5,6,7,8-tetrahydro-4H-1-benzopyrans and benzothiopyrans and the use thereof as potentiators of AMPA” (Euro-Celtique S.A., priority 1999, dated 2004)
pEC50: −log10 of the molar value. Several values for one entry are separate records, joined by “and”; a condition that tells them apart may be missing. Identical values can stand only once.

Tests used:
AMPA receptors = assay: Electrophysiology: potentiation of AMPA-evoked membrane currents in Xenopus oocytes injected with rat cortical poly(A)+ RNA (two-electrode voltage clamp); format: cell-based; conditions: 10 μM AMPA; for AMPA positive potentiation 2-fold @ μM (concentration required for 2-fold potentiation of the AMPA response): rat cortical poly(A)+ RNA, holding potential -70 mV
Protocol: FIG. 1 depicts a graph showing the concentration-effect relationship for the potentiation of AMPA-evoked currents in Xenopus oocytes by the compound of Example 4. Xenopus oocytes were injected with rat cortical poly (A+) RNA and membrane currents were measured by a standard, two-microelectrode voltage clamp method. A solution of AMPA (10 μM) was superfused through the recording chamber in the absence (control) or presence of increasing concentrations of the compound of Example 4. “I” is membrane current.
The novel compounds of the invention were assessed by electrophysiological assays in Xenopus oocytes expressing rat […] poly(A)^+ RNA (see Keana et al, J. Med. Chem. 38:4367-4379 (1995)) or in cultured rat cortical neurons (see Woodward et al., Mol. Pharmacol. 47:568-581 (1995)) for AMPA receptor activity. The compounds that potentiate currents across the oocyte membrane are expected to be useful as cognitive enhancers or for the treatment of schizophrenia, myoclonus or neurodegenerative diseases such as Parkinson's disease and Alzheimer's disease. Thus, the present invention is directed to compounds that are positive modulators of AMPA receptors.
Total RNA was prepared from rat cerebral cortex by homogenization in urea/LiCl followed by phenol/chloroform extraction. Polyadenylated (poly A^+) mRNA was isolated from total cellular RNA by oligo-dT cellulose chromatography. Xenopus oocytes were prepared by the method of Woodward et al. (Mol. Pharmacol. 41, 89-103 (1992)). Oocytes were microinjected with approximately 50 ng of cortical poly(A)^+ RNA and stored in Barth's medium (containing in mM: NaCl, 88; KCl, 1; CaCl2, 0.41; Ca(NO3)2, 0.33; MgSO4, 0.82; NaHCO3, 2.4; HEPES 5; pH 7.4, with 0.1 mg/ml gentamycin sulphate) for 6 days prior to recording. Membrane current responses were recorded in frog Ringer solution containing (in mM): NaCl, 115; KCl, 2; CaCl2, 1.8; HEPES, 5; pH 7.4, or in a nominally Ca^2+-free Ringer solution containing (in mM): NaCl, 115; KCl, 2; BaCl2, 1.8; HEPES, 5; pH 7.4. Electrical recordings were made using a conventional two-electrode voltage clamp (Dagan TEV-200). The oocyte was placed in a 5 ml chamber lined with nylon mesh, impaled with two micro-electrodes and voltage-clamped at a holding potential of −70 mV. A scaled up linear array system (Benveniste and Mayer, J. Physiol. 464, 131-163 (1993)) was used to superfuse the oocyte in Ringer solution and to apply drugs and wash solutions. A control concentration (10 μM) of AMPA was applied to the oocyte to determine a baseline membrane current response. The modulation of this response by AMPA potentiators was measured by applying increasing concentrations of the potentiator in Ringer solution for ˜30 s followed by coapplication of the potentiator with 10 μM AMPA. The resulting membrane current responses were analyzed by sigmoidal curve fitting (Origin, Microcal Software, Inc.).

Compound | melting point | pEC50 (AMPA receptors; sigmoidal curve fitting, read-out: half-maximally effective concentration for potentiation of the AMPA response) | AMPA positive potentiation 2-fold @ μM (concentration required for 2-fold potentiation of the AMPA response) (AMPA receptors) | maximal potentiation of the AMPA response (AMPA receptors; at 100 μM compound)
CC1(C)CC(=O)C2=C(C1)OC(N)=C(C#N)C2c1ccc([N+](=O)[O-])cc1 (stereo not drawn) [Example 12, 2-Amino-3-cyano-7,7-dimethyl-4-(4-nitrophenyl)-5-oxo-5,6,7,8-tetrakydro-4H-1-benzopyran] | – | – | 60.0 µM | –
CC1(C)CC(=O)C2=C(C1)OC(N)=C(C#N)C2c1cccc(O)c1 (stereo not drawn) [Example 7, 2-Amino-3-cyano-7,7-dimethyl-4-(3-hydroxyphenyl)-5-oxo-5,6,7,8-tetrahydro-4H-1-benzopyran] | 214 to 217 °C | – | 12.0 µM | –
CC1(C)CC(=O)C2=C(C1)OC(N)=C(C#N)C2c1ccc2c(c1)OCO2 (stereo not drawn) [Example 4, 2-Amino-3-cyano7,7-dimethyl-4-(3,4-methylenedioxyphenyl)-5-oxo-5,6,7,8-tetrahydro-4H-1-benzopyran] | – | 4.78 | 4 µM and 4.0 µM | 11 fold
COc1cc(C2C(C#N)=C(N)OC3=C2C(=O)CC(C)(C)C3)cc2c1OCO2 (stereo not drawn) [Example 14, 2-Amino-3-cyano-7,7-dimethyl-4-(3-methoxy-4,5-methylenedioxyphenyl)-5-oxo-5,6,7,8-tetrahydro-4H-1-benzopyran] | – | – | 12.0 µM | –
2-Amino-3-cyano-7,7-dimethyl-4-(3,4-difluoromethylenedioxyphenyl)-5-oxo-5,6,7,8-tetrahydro-4H-1-benzopyran [Example 15] | – | – | 18.0 µM | –
CC1(C)CC(=O)C2=C(C1)OC(N)=C(C#N)C2c1ccc(O)cc1 (stereo not drawn) [Example 10, 2-Amino-3-cyano-7,7-dimethyl-4-(4-hydroxyphenyl)-5-oxo-5,6,7,8-tetrakydro-4H-1-benzopyran] | – | – | 14.0 µM | –
Cc1cc(C)c(C2C(C#N)=C(N)OC3=C2C(=O)CC(C)(C)C3)c(C)c1 (stereo not drawn) [Example 2, 2-Amino-3-cyano-7,7-dimethyl-4-(2,4,6-trimethylphenyl)-5-oxo-5,6,7,8-tetrahydro-4H-1-benzopyran] | – | – | 4.0 µM | –
COc1ccc(C2C(C#N)=C(N)OC3=C2C(=O)CC(C)(C)C3)cc1 (stereo not drawn) [Example 1, 2-Amino-3-cyano-7,7-dimethyl-4-(4-methoxyphenyl)-5-oxo-5,6,7,8-tetrahydro-4H-1-benzopyran] | – | – | 7.0 µM | –
COc1cccc(C2C(C#N)=C(N)OC3=C2C(=O)CC(C)(C)C3)c1 (stereo not drawn) [Example 11, 2-Amino-3-cyano-7,7-dimethyl-4-(3-methzoxyphenyl)-5-oxo-5,6,7,8-tetrahydro-4H-1-benzopyran] | – | – | 6.0 µM | –
CC1(C)CC(=O)C2=C(C1)OC(N)=C(C#N)C2c1ccccc1 (stereo not drawn) [Example 3, 2-Amino-3-cyano-7,7-dimethyl-4-phenyl-5-oxo-5,6,7,8-tetrahydro-4H-1-benzopyran] | – | – | 12.0 µM | –
CN(C)c1ccc(C2C(C#N)=C(N)OC3=C2C(=O)CC(C)(C)C3)cc1 (stereo not drawn) [Example 9, 2-Amino-3-cyano-7,7-dimethyl-4-(4-dimethylaminophenyl)-5-oxo-5,6,7,8-tetrahydro-4H-1-benzopyran] | 221 to 224 °C | – | 12.0 µM | –
Cc1ccc(C2C(C#N)=C(N)OC3=C2C(=O)CC(C)(C)C3)cc1 (stereo not drawn) [Example 8, 2-Amino-3-cyano-7,7-dimethyl-4-(4-methylphenyl)-5-oxo-5,6,7,8-tetrahydro-4H-1-benzopyran] | – | – | 12.0 µM | –
COc1ccc(C2C(C#N)=C(N)OC3=C2C(=O)CCC3)cc1 (stereo not drawn) [Example 5, 2-Amino-3-cyano-4-(4-methoxyphenyl)-5-oxo-5,6,7,8-tetrahydro-4H-1-benzopyran] | 209 to 212 °C | – | 35.0 µM | –
CC1(C)CC(=O)C2=C(C1)OC(N)=C(C#N)C2c1ccc(Cl)cc1 (stereo not drawn) [Example 6, 2-Amino-3-cyano-4-(4chlorophenyl)-7,7-dimethyl-5-oxo-5,6,7,8-tetrahydro-4N-1-benzopyran] | – | – | 18.0 µM | –

Continued, in another order:

melting point | pEC50 (AMPA receptors; sigmoidal curve fitting, read-out: half-maximally effective concentration for potentiation of the AMPA response) | Compound | AMPA positive potentiation 2-fold @ μM (concentration required for 2-fold potentiation of the AMPA response) (AMPA receptors) | maximal potentiation of the AMPA response (AMPA receptors; at 100 μM compound)
222 to 224 °C | – | CC1(C)CC(=O)C2=C(C1)OC(N)=C(C#N)C2c1ccncc1 (stereo not drawn) [Example 13, 2-Amino-3-cyano-7,7-dimethyl-4-(4-pyridyl)-5-oxo-5,6,7,8-tetrahydro-4H-1-benzopyran] | 60.0 µM | –
189 to 193 °C | – | CC1(C)CC(=O)C2=C(C1)OC(N)=C(C#N)C2c1ccc(F)cc1 (stereo not drawn) [Example 17, 2-Amino-3-cyano-7,7-dimethyl-4-(4-fluorophenyl)-5-oxo-5,6,7,8-tetrahydro-4H-1-benzopyran] | 27.0 µM | –
259 to 262 °C | – | CC1(C)CC(=O)C2=C(C1)OC(N)=C(C#N)C2c1ccc2ccccc2c1 (stereo not drawn) [Example 18, 2-Amino-3-cyano-7,7-dimethyl-4-(2-naphthyl)-5-oxo-5,6,7,8-tetrahydro-4H-1-benzopyran] | 1.6 µM | –
227 to 230 °C | – | CC1(C)CC(=O)C2=C(C1)OC(N)=C(C#N)C2c1ccc(C#N)cc1 (stereo not drawn) [Example 16, 2-Amino-3-cyano-4-(4-cyanophenyl)-7,7-dimethyl-5-oxo-5,6,7,8-tetrahydro-4H-1-benzopyran] | 20.0 µM | –
